Tested on: 817829-284-R-J1-PDC complex spheroids, viability
Assay: Anticancer human tumor 817829-284-R-J1-PDC patient-derived colon adenocarcinoma cell line growth inhibition [GQUAD]
Conditions: for IC50: curve of first compound; for viability, T/C: stronger effect = lower value
Excerpt: DNA G-quadruplex Stabilizer Agents in Combinations in Complex Spheroids
A high-throughput screen of multi-cell type tumor spheroids was designed to identify active combinations of DNA G-quadruplex stabilizer agents and targeted small molecules. Complex spheroids include a stromal component modeled by human endothelial cells (HUVEC) and fibroblasts modeled by human mesenchymal stem cells (MSCs). The concentration ranges selected for each drug and investigational agent were based upon clinically achievable concentrations if the clinical Cmax of the agent was known.
Compounds. The drugs and investigational agents: pidnarulex (CX-5461; NSC782164), APTO-253 (NSC789042), BRACO-19 (NSC847499), peposertib (NSC802822), ceralasertib (NSC780249), elimusertib (NSC800525), camonsertib (NSC841442), AZD-1390 (NSC803789), olaparib (NSC753686), talazoparib (NSC767125), ART-558 (NSC835418), sotorasib (NSC818433), MRTX-1133 (NSC836407), SN-38 (NSC673596), topotecan (NSC609699), etoposide (NSC141540), doxorubicin (NSC123127), gemcitabine (NSC613327), 5-fluorouracil (NSC19893), paclitaxel (NSC125973), vemurafenib (NSC761431), panobinostat (NSC761190), R-306465 (JNJ-16241199; NSC773264), adavosertib (NSC754352), TP-3654 (NSC805149), carboplatin (NSC241240), KSQ-4279 (NSC840948), and staurosporine (NSC755774) were obtained from the National Cancer Institute (NCI) Developmental Therapeutics Program Chemical Repository (34). The FDA-approved anticancer drug set is available from the NCI Developmental Therapeutics Program. […] The stock solutions were prepared in dimethyl sulfoxide (DMSO, Sigma-Aldrich, St. Louis, MO, cat. D2650) at 800-fold the tested concentration and stored at -70 degrees C prior to their use. All drugs and investigational agents were tested over a range starting from a high concentration at or near the clinical Cmax and decreasing in half-log increments. If the clinical Cmax for an agent had not been determined, the highest concentration tested was 10 microM.
2.3 Cell Culture. All cells were maintained in an incubator at 37 degrees C and 5% CO2 with 95% humidity. The PDC lines were cultured according to standard operating procedures established by the NCI PDMR. All PDCs were thawed and cultured in Matrigel-coated flasks prepared with a working solution of 1X Ham's F-12 nutrient mix, without supplementation (Invitrogen, cat. 11765054), 100 U/mL penicillin-streptomycin (Invitrogen, cat. 15140122), and 2.5% Matrigel (Corning Inc., cat. 354248) for the first three passages. The 857933-349-R-J2-PDC line was cultured in 6C/Colon 1B media, which includes advanced DMEM/F-12 (Thermo Fisher Scientific, cat. 12634028), 10 mM HEPES (Thermo Fisher Scientific, cat. 15630080), 1X GlutaMAX supplement (Thermo Fisher Scientific, cat. 35050061), 0.1 mg/mL primocin (InvivoGen, cat. ant-pm-2), 10% defined fetal bovine serum, heat inactivated (HyClone Laboratories Inc., cat. SH30070.03HI), 50% L-WRN conditioned media (ATCC, cat. CRL-3276), 1.25 mM N-Acetyl-L-cysteine (Sigma-Aldrich, cat. A9165), 10 mM nicotinamide (Sigma-Aldrich, cat. N0636), 1X B-27 supplement (Thermo Fisher Scientific, cat. 17504044), 1X N-2 supplement (Thermo Fisher Scientific, cat. 17502048), 10 microM Y-27632 dihydrochloride (Tocris Bioscience, cat. 1254), and 50 ng/mL human EGF recombinant protein (Thermo Fisher Scientific, cat. PHG0311). The 485176-168-R4-J1-PDC line was cultured in Panc media, which includes all 6C/Colon 1B media components plus 100 ng/mL human FGF-10 (Thermo Fisher Scientific, cat. 100-26), 500 nM SB-431542 (Selleckchem, cat. S1067), and gastrin (Tocris, cat. 3006).
[…]

[1] = second compound 0.0316 µM, first compound 0.0316 µM
[2] = second compound 0.0316 µM, first compound 0.1 µM
[3] = second compound 0.0316 µM, first compound 0.316 µM
[4] = second compound 0.0316 µM, first compound 1 µM
[5] = second compound 0.0316 µM, first compound 3.16 µM
[6] = second compound 0.0316 µM, first compound 10 µM
[7] = second compound 0.1 µM, first compound 0.0316 µM
[8] = second compound 0.1 µM, first compound 0.1 µM
[9] = second compound 0.1 µM, first compound 0.316 µM
[10] = second compound 0.1 µM, first compound 1 µM
[11] = second compound 0.1 µM, first compound 3.16 µM
[12] = second compound 0.1 µM, first compound 10 µM
[13] = second compound 0.316 µM, first compound 0.0316 µM
[14] = second compound 0.316 µM, first compound 0.1 µM
[15] = second compound 0.316 µM, first compound 0.316 µM
[16] = second compound 0.316 µM, first compound 1 µM
[17] = second compound 0.316 µM, first compound 3.16 µM
[18] = second compound 0.316 µM, first compound 10 µM
[19] = second compound 1 µM, first compound 0.0316 µM
[20] = second compound 1 µM, first compound 0.1 µM
[21] = second compound 1 µM, first compound 0.316 µM
[22] = second compound 1 µM, first compound 1 µM
[23] = second compound 1 µM, first compound 3.16 µM
[24] = second compound 1 µM, first compound 10 µM
[25] = second compound 3.16 µM, first compound 0.0316 µM
[26] = second compound 3.16 µM, first compound 0.1 µM
[27] = second compound 3.16 µM, first compound 0.316 µM
[28] = second compound 3.16 µM, first compound 1 µM
[29] = second compound 3.16 µM, first compound 3.16 µM
[30] = second compound 3.16 µM, first compound 10 µM
[31] = second compound 10 µM, first compound 0.0316 µM
[32] = second compound 10 µM, first compound 0.1 µM
[33] = second compound 10 µM, first compound 0.316 µM
[34] = second compound 10 µM, first compound 1 µM
[35] = second compound 10 µM, first compound 3.16 µM
[36] = second compound 10 µM, first compound 10 µM
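Also: spheroids exposed to agents for 7 days before readout.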
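For viability, T/C in this document: percent viability relative to DMSO vehicle control taken as 100%.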

COc1cc(C2c3cc4c(cc3C(OC3OC5COC(C)OC5C(O)C3O)C3COC(=O)C23)OCO4)cc(OC)c1O (centres undefined) + Cc1[nH]c2ccc(F)cc2c1-c1nc2c3cccnc3c3ncccc3c2[nH]1
IC50 (second compound 0.0316 µM): 184 nM | IC50 (second compound 0.1 µM): 216 nM | IC50 (second compound 0.316 µM): 191 nM | IC50 (second compound 1 µM): 214 nM | IC50 (second compound 3.16 µM): 113 nM | IC50 (second compound 10 µM): 44.8 nM | viability, T/C [1]: 110% | viability, T/C [2]: 67.2% | viability, T/C [3]: 31.6% | viability, T/C [4]: 27.2% | viability, T/C [5]: 28.1% | viability, T/C [6]: 10.6% | viability, T/C [7]: 95.3% | viability, T/C [8]: 91.2% | viability, T/C [9]: 29.5% | viability, T/C [10]: 31.8% | viability, T/C [11]: 26% | viability, T/C [12]: 9.21% | viability, T/C [13]: 86.7% | viability, T/C [14]: 80.4% | viability, T/C [15]: 26.4% | viability, T/C [16]: 32.7% | viability, T/C [17]: 28.9% | viability, T/C [18]: 9.89% | viability, T/C [19]: 85.6% | viability, T/C [20]: 89.7% | viability, T/C [21]: 30.7% | viability, T/C [22]: 30.4% | viability, T/C [23]: 25.1% | viability, T/C [24]: 9.74% | viability, T/C [25]: 109% | viability, T/C [26]: 54.1% | viability, T/C [27]: 16.8% | viability, T/C [28]: 15.2% | viability, T/C [29]: 17.8% | viability, T/C [30]: 3.63% | viability, T/C [31]: 60.5% | viability, T/C [32]: 26.2% | viability, T/C [33]: 9.53% | viability, T/C [34]: 8.4% | viability, T/C [35]: 6.82% | viability, T/C [36]: 2.64%

Nc1ccn(C2OC(CO)C(O)C2(F)F)c(=O)n1 (centres undefined) + Cc1[nH]c2ccc(F)cc2c1-c1nc2c3cccnc3c3ncccc3c2[nH]1
IC50 (second compound 0.0316 µM): < 31.6 nM | IC50 (second compound 0.1 µM): < 31.6 nM | IC50 (second compound 0.316 µM): < 31.6 nM | IC50 (second compound 1 µM): < 31.6 nM | IC50 (second compound 3.16 µM): < 31.6 nM | IC50 (second compound 10 µM): < 31.6 nM | viability, T/C [1]: 20.2% | viability, T/C [2]: 6.9% | viability, T/C [3]: 6.88% | viability, T/C [4]: 6.74% | viability, T/C [5]: 5.53% | viability, T/C [6]: 3.68% | viability, T/C [7]: 14.1% | viability, T/C [8]: 8.53% | viability, T/C [9]: 7.09% | viability, T/C [10]: 6.66% | viability, T/C [11]: 4.94% | viability, T/C [12]: 3.89% | viability, T/C [13]: 13.8% | viability, T/C [14]: 9.71% | viability, T/C [15]: 6.14% | viability, T/C [16]: 6.13% | viability, T/C [17]: 6.19% | viability, T/C [18]: 3.54% | viability, T/C [19]: 20.8% | viability, T/C [20]: 8.09% | viability, T/C [21]: 5.47% | viability, T/C [22]: 5.85% | viability, T/C [23]: 5.57% | viability, T/C [24]: 3.28% | viability, T/C [25]: 12.7% | viability, T/C [26]: 7.63% | viability, T/C [27]: 3.35% | viability, T/C [28]: 3.87% | viability, T/C [29]: 3.33% | viability, T/C [30]: 2.74% | viability, T/C [31]: 7.76% | viability, T/C [32]: 3.83% | viability, T/C [33]: 2.59% | viability, T/C [34]: 2.55% | viability, T/C [35]: 2.74% | viability, T/C [36]: 2.11%

Reference: PubChem BioAssay AID2060503 (Molecular Pharmacology Branch, DTP, NCI, 2025)
